Read-outs that look alike come from different tables or passages of the source.

Data on one molecule can be found in patent publication US20090163481A1, “PPAR-DELTA LIGANDS AND METHODS OF THEIR USE” (priority 2007, published 2009).

Test [1] has as its target T1, ligand binding domain of PPAR delta (Homo sapiens, UniProt Q03181).
T1 construct: purchased Invitrogen
T1 sequence (Q03181 211-439 limits assumed): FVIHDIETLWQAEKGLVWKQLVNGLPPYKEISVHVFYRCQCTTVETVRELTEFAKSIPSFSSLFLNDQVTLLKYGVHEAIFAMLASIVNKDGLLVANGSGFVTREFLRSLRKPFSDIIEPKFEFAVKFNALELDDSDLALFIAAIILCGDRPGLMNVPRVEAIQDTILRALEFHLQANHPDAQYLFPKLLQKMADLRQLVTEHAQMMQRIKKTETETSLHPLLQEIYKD
Nature of the test: LANTHA SCREEN TR-FRET PPARδ Competitive Binding Assay. Here is the method: The LANTHA SCREEN™ TR-FRET PPARδ Competitive Binding Assay was conducted for a variety of compounds according to the instructions provided by the manufacturer (Invitrogen). In addition, proliferation assays were conducted. In Table 2, “Prolif IC50” is the concentration that inhibits cell viability (or growth) by 50% relative to a vehicle control, and “TR-F binding IC50 (μM)” is the concentration that competes binding by a labeled pan-agonist to the ligand binding domain of PPAR delta, by 50%.
For orientation: Time-resolved FRET reads energy transfer from a long-lived donor to a nearby acceptor.

The subject of another test is Akt1. Nature of the test: Western analysis of phosphorylated Akt1 in growth factor-deprived PC-3 cultures. Format: cell-based, human. As to conditions: PC-3, 48 h growth factor withdrawal; VLDL 2 μg/ml + LPL 2 μg/ml and/or 10 μM SR13904. Here is the method:
The ability of SR 13904 to regulate the cell survival Akt1 signaling pathway was assessed. PC-3 cultures were exposed to apoptosis-inducing growth factor deprivation and harvested for Western analysis of phosphorylated Akt1 and total PTEN protein. PTEN is known to inhibit the Akt1 pathway at the level of PI3-kinase. […] Subsequent studies confirmed this conclusion.
Referring to FIG. 8, PC-3 cells were exposed to 48 h of growth factor withdrawal with and without VLDL SR 13904 (2 μg/ml VLDL+2 μg/ml LPL and/or 10 μM SR13904). Standard western analysis for phospho-serine 473, phospho-tyrosine 308, and PTEN were performed. GAPDH was used as a control.

The test system of a further test is PC-3 cells. Briefly: Western analysis of cyclin D1 and CDK2 in post-confluent PC-3 cells. Format: cell-based, human. As to conditions: post-confluent PC-3, 48 h, SR 13904 10 μM, vehicle- and VLDL-treated cells. As to the method: Referring to FIG. 4, PC-3 cells were brought to confluence and cultured in serum-free OptiMem culture medium (Gibco) 2 h before treatment with a combination of VLDL (2 μg/ml+2 μg/ml LPL) and/or SR 13904 (10 μM) and incubated for an additional 48 h. Standard Western blotting was performed. Glyceraldehyde 3 phosphate dehydrogenase (GAPDH) was used a control for both blots.

The next test relates to A549 cells. Nature of the test: Cell cycle distribution by flow cytometry in A549 cells. The test is classed as cell-based, human. Particulars: A549, 2% FBS, 15 μM, after 24 h. As to the method:
Referring now to FIG. 5A, SR13904 exerts inhibitory effects on the cell cycle. A representative experiment in which A549 cells were grown in phenol-red-free DMEM+2% charcoal-treated FBS □ SR13904 ([…]). Cells were treated in the exponential phase and assessed by flow cytometry at 24 and 48 h.
Referring now to FIG. 5B, SR13904 treatment arrests A549 cells in the G1 phase of the cell cycle. A549 cells were incubated in 2% FBS (to maintain a high proliferative state) and the cell-cycle profile was determined by flow cytometry after SR13904 treatment (15 μM) for 24 and 48 h, and compared with similar treatment by a control. […] All differences (SR13904-treated vs. vehicle control-treated) were significant; the G1 differences were highly significant (**p=0.001-0.01, ***p=<0.001). The results provide confirming evidence that activated PPARδ increases cell cycle progression through a positive effect on G1-phase cells, and that PPARδ activation upregulates CDK2, CDK4, and cyclin D1 expression patterns.

Another test has as its system Huh7. Nature of the test: Alamar Blue proliferation assay, Huh7. Particulars: Homo sapiens, Huh-7, 96 h; Huh7, 0-40 μM, 0.5% serum, 4 days; read-out: IC50 for growth inhibition. The test is classed as cell-based. Here is the method: The effect of SR13904 on the proliferation of these cell lines was determined by an Alamar Blue assay. Exponentially growing cells were treated with a range of SR13904 concentrations (0-40 μM; in 0.5% serum) over 4 days and proliferation curves were determined. The IC50 values for growth inhibition by SR13904 for each cell line were determined. […] In addition, colony formation assays with SR13904 were performed with both A549 and Huh7 cells.
In general terms: Resazurin is reduced to fluorescent resorufin, in cell work by metabolically active cells.

As for `Cc1cc(SCc2sc(-c3cccc4ccccc34)nc2C)ccc1OCC(=O)O` [SR 13904], the IC50 was 2400 nM in test [1] (competes binding by a labeled pan-agonist by 50%, * = determined by approximation from a semi log graph, read-out: TR-F binding IC50); 2100 nM in test [1] (repeat determination of TR-F binding IC50, read-out: repeat TR-F); 8000 to 10000 nM in the test on Huh7. Further, the “phosphorylation of serine 473 and tyrosine 308 on the Akt1 protein” value in the test on Akt1 was “completely abolished”. Further, in the test with PC-3 cells (VLDL 2 μg/ml + LPL 2 μg/ml), the CDK2 protein levels entry is “decreased”. Further, in the test on PC-3 cells, the “cyclin D1 protein levels” value is recorded as “decreased”. For the same molecule, the “fraction of cells in the G1 phase” value in the test with A549 cells is “significantly increased”. In addition, in the test with A549 cells, the “fraction of cells in the S phase” value is “decreased”.
